Entries after “also recorded” stand apart in the source; their conditions may differ. Like-named read-outs stand apart in the source and are kept apart here.
Columns and labels:
hATX [1] = target: T1, hATX (Homo sapiens, UniProt Q13822)
Procedure: (§1) All biochemical studies were performed with hATX. ATX lysoPLD activity was measured by choline release from LPC[47]. […] The relative amount of released choline was measured by HVA fluorescence in a 96-well plate (Corning). Fluorescent intensity was determined at λex/λem=320/450 nm every 30 s for 90 min with a Fluorostar plate reader (BMG Labtech). Data analysis was performed using GraphPad Prism.
(§2) The experiments for determining IC50 for different bile salt inhibitors were performed by adding the named bile salt and performing serial threefold dilutions; for each bile salt concentration, the velocity of the reaction was monitored as a function of time in the lysoPLD assay as described above.
(§3) For initial comparison between competitive, uncompetitive and non-competitive inhibition by TUDCA, using the LPC and the FS3 assays, we measured the relative velocity for increasing LPC or FS3 substrate concentrations, for no-inhibitor and for three different inhibitor concentrations. The relative velocity for each data point was measured by linear regression as described above, and a Michaelis–Menten curve was created for each inhibitor concentration. We then used the following equations to describe each mode of inhibition:
(§4) where in addition to previous definitions that can be derived from equations (4–6), we define Part as the partiality of the inhibition and α as an estimated constant that determines mechanism: if α=1, the formula becomes identical to equation (4) and the inhibition mode is noncompetitive; if a is very large, then the model approaches a competitive model equation (3); if a is very small but greater than zero, the model approaches an uncompetitive model.
(§5) This procedure allowed a more robust fit to determine all parameters from all available experiments.
(§6) All modelling was performed using the regression analysis tools within the Graphpad/Prism software. The values of all derived parameters indicate mean values as obtained by nonlinear regression analysis using the formulas listed above; triplicate data were used as separate observations during the fit; ±values indicate the standard error of the mean.

hATX [2] = target: T1, hATX; assay: Mass spectrometry analysis of sterols associated with recombinant ATX preparation; set-up: made in house; host or cells: HEK 293 Flp-In cells; conditions: for amount found in ATX preparation: representative ATX preparation containing 2.4 pmol ATX; for Ratio to ATX: representative ATX preparation, ATX = 1.0
Procedure: Recombinant hATX preparations or buffer controls were extracted using acidified organic solvents as reported previously for lipid extractions from cells and tissues[45] with inclusion of deuterium-labelled cholesterol of oxysterol internal standards as detailed below. Samples were evaporated to dryness and reconstituted in methanol for mass spectrometry analysis.
Cholesterol and hydroxysterols were analysed using an AB Sciex 4000-Qtrap hybrid linear ion trap triple quadrupole mass spectrometer in multiple reaction monitoring mode connected to a Shimadzu HPLC. Cholesterol was analysed in positive multiple reaction monitoring mode using a Machery Nagel Nucleodur C8 gravity column, 5 μm, 125 × 2 mm^2 with a flow rate of 0.5 ml min^−1. Solvent A consists of 75/25 of methanol/water with 0.5% formic acid and 0.1% 5 mM ammonium formate and solvent B consists of 99/1 of methanol/water with 0.5% formic acid and 0.1% 5 mM ammonium formate. The cholesterol measurements were conducted exactly as reported previously with quantification accomplished by reference to a deuterated internal standard. Oxysterols were measured after dimethylglycine (DMG) derivatization using an Agilent Zorbax Eclipse XDB-C18 column, 5 μm, 4.6 × 150 mm^2 with a flow rate of 0.5 ml min^−1. Solvent A was 85% methanol with 5 mM ammonium acetate and solvent B consisted of 80:20:2 of chloroform/water/50 mM ammonium acetate. In brief, we obtained authentic standards for 25-, 24-, 27, 7-α and 4-β OH cholesterol and deuterated 25-OH cholesterol and prepared DMG derivatives exactly as previously described. We obtained product ion spectra from the doubly and singly charged DMG derivatives of these compounds that were essentially identical to those reported previously with some differences in product ion abundances that are likely attributable to differences between our mass spectrometer system and that used by Jiang et al.[46]. […] Quantification of oxysterols was accomplished by reference to the deuterated 25-OH cholesterol internal standard as explained below.
Cholesterol was detected in all ATX preparations analysed.
As reported by Jiang et al.[46], bis-DMG derivatives of hydroxylated cholesterol generate doubly charged molecular ions (m/z=287.3), which fragment to produce protonated DMG (m/z=104.1) and production of singly charged mono-DMG derivative ions (m/z=367.2). […] Accordingly, we established a selected ion-monitoring mode HPLC LC MS/MS assay that monitored these ion pairs. […] Quantification was accomplished by comparing the integrated peak area for the […]/104.1 ion pair to that of the corresponding ion pair from the deuterated 25-OH cholesterol internal standard. That ATX preparation analysed contained 1.48 pmol of 7-OH cholesterol.

hATX [3] = target: T1, hATX; assay: biochemical
Procedure: as §1, §2, §3, §4, §5, §6

[4] = system: ATX-mediated LPAR1 endocytosis in HeLa cells; assay: LPA1 receptor internalization assay in GFP-LPA1-transfected HeLa cells; conditions: 0.1 μM LPC, 5 nM ATX, 500 μM TUDCA, 15 min, P<0.001
Procedure: HeLa cells (obtained from American Type Culture Collection) were grown in DMEM supplemented with 10% fetal bovine serum at 37 °C under 5% CO2. For LPA1 internalization studies, HeLa cells were transient transfected with GFP-LPA1 plasmid using X-tremeGene 9 (Roche) reagent according to the manufacturer's instructions. At 10 h after transfection, the cells were rinsed with SF-DMEM and incubated in the same medium for 16–24 h before further treatments. […] Slides were examined on a Leica TCS-SP5 confocal microscope (× 62 objective) and analysed using ImageJ software.

[5] = LPC(18:1) substrate, result in words

Compound | effect on ATX-mediated LPC hydrolysis (hATX [1]; [5]) | IC50 (hATX [3]) | also measured
CC(C)CCC[C@@H](C)[C@H]1CC[C@H]2[C@@H]3[C@H](O)C=C4C[C@@H](O)CC[C@]4(C)[C@H]3CC[C@]12C [7HCS, 7α-hydroxycholesterol] | no effect |  | amount found in ATX preparation (hATX [2]): 1.48 pmol; Ratio to ATX (hATX [2]): 0.62
CC(C)CCC[C@@H](C)[C@H]1CC[C@H]2[C@@H]3CC=C4C[C@@H](O)CC[C@]4(C)[C@H]3CC[C@]12C [Cholesterol] |  |  | amount found in ATX preparation (hATX [2]): 0.35 pmol; Ratio to ATX (hATX [2]): 0.15
C[C@H](CCCC(C)(C)O)[C@H]1CC[C@H]2[C@@H]3[C@H](O)C=C4C[C@@H](O)CC[C@]4(C)[C@H]3CC[C@]12C [DHCS, 7α,25-Dihydroxycholesterol] | no effect | > 1000 µM | 
C[C@H](CCC(=O)NCC(=O)O)[C@H]1CC[C@H]2[C@@H]3[C@H](O)C[C@@H]4C[C@H](O)CC[C@]4(C)[C@H]3CC[C@]12C [GCDCA, Glycochenodeoxycholic acid] | did not significantly change potency | 8.1 ± 0.7 µM | 
C[C@H](CCC(=O)NCCS(=O)(=O)O)[C@H]1CC[C@H]2[C@@H]3[C@H](O)C[C@@H]4C[C@H](O)CC[C@]4(C)[C@H]3C[C@H](O)[C@]12C [TCA, Taurocholic acid] |  | > 1000 µM | effect on ATX-mediated LPC hydrolysis (hATX [1]): abrogate the inhibitory activity
C[C@H](CCC(=O)NCCS(=O)(=O)O)[C@H]1CC[C@H]2[C@@H]3CC[C@@H]4C[C@H](O)CC[C@]4(C)[C@H]3C[C@H](O)[C@]12C [TDCA, Taurodeoxycholic acid] | abrogate the inhibitory activity | > 1000 µM | 
C[C@H](CCC(=O)NCCS(=O)(=O)O)[C@H]1CC[C@H]2[C@@H]3[C@@H](O)C[C@@H]4C[C@H](O)CC[C@]4(C)[C@H]3CC[C@]12C [TUDCA, Tauroursodeoxycholic acid] |  |  | ATX-mediated LPAR1 endocytosis (number of GFP-LPA1 endosomes) [4]: reduces ATX-mediated LPAR1 endocytosis; also recorded: reduces the number of endosomes
C[C@H](CCC(=O)O)[C@H]1CC[C@H]2[C@@H]3[C@@H](O)C[C@@H]4C[C@H](O)CC[C@]4(C)[C@H]3CC[C@]12C [UDCA, Ursodeoxycholic acid] |  | 8.8 ± 0.5 µM | 
C[C@@H]1C[C@H]2[C@@H]3CCC4=CC(=O)C=C[C@]4(C)[C@@]3(F)[C@@H](O)C[C@]2(C)[C@@]1(O)C(=O)CO [dexamethasone] | no effect |  | 
C[C@]12C=CC(=O)C=C1CC[C@@H]1[C@@H]2[C@@H](O)C[C@@]2(C)[C@H]1CC[C@]2(O)C(=O)CO [prednisolone] | no effect |  | 
C[C@]12CC[C@H]3[C@@H](CCC4=CC(=O)CC[C@@]43C)[C@@H]1CC[C@@H]2O [testosterone] | no effect |  | 

Reference: article PMC4834639, “Steroid binding to Autotaxin links bile salts and lysophosphatidic acid signalling” (Nature Communications, 2016)
